# System: gene expression in Col-0 seedling shoots
# Assay: Microarray analysis (ATH1 Affymetrix) after BL or abrasin treatment
# Format: in vivo, Arabidopsis
# Procedure: FIG. 14: Clustering of gene expression profiles by QT-clust analysis. Clusters illustrating the major patterns of the data sets. Points: BIK-30: 30 μM abrasin 30 min; BL-30: 1 μM brassinolide 30 min; DMSO-30: control DMSO 30 min; BIK-120: 30 μM abrasin 120 min; BL-120: 1 μM brassinolide 120 min; DMSO-120: control DMSO 120 min.
# Col-0 seeds were germinated vertically on ½ MS medium for 7 days under 16 h light/8 h dark cycles. The seedlings were overlaid with liquid ½ MS medium containing 1 μM brassinolide (BL, Fuji Chemical Industries, Ltd., Toyama, Japan), 30 μM abrasin (BIK, ChemBridge Corporation) and DMSO and treated for 30 and 120 min. The shoot parts were collected for RNA isolation. All sampling points were performed in three independent experiments. RNA was extracted using RNeasy kit (Qiagene). […] total RNA per array was used to hybridise the ATH1 Affymetrix Arabidopsis arrays according to standard procedure. The overrepresentation analyses were performed using BiNGO software (Maere et al., 2005).
# We performed a microarray analysis using the Arabidopsis whole genome chip (Affymetix) to determine whether abrasin activated the expression of BR-inducible genes at transcriptional level. Wild-type Col-0 seedlings were exposed to 1 μM BL, 30 μM ABRASIN and DMSO (mock-treatment) for two time points (30 min and 120 min) and the shoot parts were collected for RNA isolation. The analysis of the variance of the normalized gene expression data took in account the variability parameters affecting the expression level: type of hormone treatment, duration of treatment and the interaction between these two.
smiles,measurement,setting,value
"CC(C)[C@H](C)[C@@H](O)[C@H](O)[C@@H](C)[C@H]1CC[C@H]2[C@@H]3COC(=O)[C@H]4C[C@H](O)[C@H](O)C[C@]4(C)[C@H]3CC[C@]12C [BL, brassinolide, reference compound]","expression of BR biosynthesis genes (CPD, DWF4, BR6OX2), Cluster 1","1 μM BL, 30 μM ABRASIN",down-regulated
same,"expression of genes involved in the auxin pathway (IAA29, IAA2)","1 μM BL, 30 μM ABRASIN",significantly down-regulated
same,"induction of early auxin-inducible SAUR family genes, Cluster 3","1 μM BL, 30 μM ABRASIN, 30 and 120 min",induced by BL as faster as 30 min treatment
same,Fold-change AT1G04330 expressed protein,30 min,1.04
same,Fold-change AT1G05470 endonuclease/exonuclease/phosphatase family protein,30 min,1.04
same,Fold-change AT1G06520 Encodes a membrane associated mitochondrial localized protein,30 min,1.57
same,Fold-change AT1G06570 4-hydroxyphenylpyruvate dioxygenase (HPD),30 min,0.87
same,Fold-change AT1G10550 xyloglucan:xyloglucosyl transferase,30 min,1.34
same,Fold-change AT1G12710 F-box family protein,30 min,1.26
same,Fold-change AT1G12750 rhomboid family protein,30 min,1.15
same,Fold-change AT1G14130 2-oxoglutarate-dependent dioxygenase,30 min,1.26
same,Fold-change AT1G14700 purple acid phosphatase,30 min,0.73
same,Fold-change AT1G16640 transcriptional factor B3 family protein,30 min,1.02
same,Fold-change AT1G17230 leucine-rich repeat family protein,30 min,1.08
same,"Fold-change AT1G18020; AT1G17990 [AT1G18020, 12-oxophytodienoate reductase,",30 min,0.80
same,Fold-change AT1G19320 pathogenesis-related thaumatin family protein,30 min,0.81
same,Fold-change AT1G20350 mitochondrial import inner membrane translocase subunit,30 min,0.99
same,Fold-change AT1G21050 expressed protein,30 min,0.72
same,Fold-change AT1G21760 F-box family protein,30 min,1.02
same,Fold-change AT1G22360 UDP-glucoronosyl/UDP-glucosyl transferase family protein,30 min,0.94
same,Fold-change AT1G23080 auxin efflux carrier protein (PIN7),30 min,0.89
same,"Fold-change AT1G26800 zinc finger (C3HC4-type RING finger) family protein,",30 min,1.51
same,Fold-change AT1G27730 zinc finger (C2H2 type) family protein,30 min,0.18
same,Fold-change AT1G28130 encodes an IAA-amido synthase,30 min,0.85
same,Fold-change AT1G28190 expressed protein,30 min,0.66
same,Fold-change AT1G28480 glutaredoxin family protein,30 min,0.99
same,Fold-change AT1G31040 zinc-binding protein-related,30 min,0.88
same,Fold-change AT1G31310 hydroxyproline-rich glycoprotein family protein,30 min,0.85
same,Fold-change AT1G31770 ABC transporter family protein,30 min,0.99
same,Fold-change AT1G32190 expressed protein,30 min,1.00
same,Fold-change AT1G32690 expressed protein,30 min,0.92
same,Fold-change AT1G36940 expressed protein,30 min,0.89
same,Fold-change AT1G49780 U-box domain-containing protein,30 min,0.53
same,"Fold-change AT1G53870; AT1G53890 [AT1G53870, expressed protein",30 min,0.89
same,Fold-change AT1G54050 17.4 kDa class III heat shock protein (HSP17.4-CIII),30 min,1.09
same,Fold-change AT1G54200 expressed protein,30 min,1.16
same,Fold-change AT1G55920 serine O-acetyltransferase,30 min,1.04
same,Fold-change AT1G57560 myb family transcription factor (MYB50),30 min,1.04
same,Fold-change AT1G59590 expressed protein,30 min,0.95
same,Fold-change AT1G59660 nucleoporin family proteinmily,30 min,1.67
same,Fold-change AT1G62300 WRKY family transcription factor,30 min,0.63
same,Fold-change AT1G63050 membrane bound O-acyl transferase (MBOAT) family protein,30 min,0.98
same,"Fold-change AT1G66160 U-box domain-containing protein,",30 min,1.10
same,Fold-change AT1G66890 expressed protein,30 min,0.72
same,Fold-change AT1G68330 expressed protein,30 min,0.90
same,Fold-change AT1G68810 basic helix-loop-helix (bHLH) family protein,30 min,1.11
same,Fold-change AT1G69160 expressed protein,30 min,1.06
same,Fold-change AT1G70990 proline-rich family protein,30 min,1.59
same,Fold-change AT1G71030 Encodes a putative myb family transcription factor,30 min,0.84
same,Fold-change AT1G72060 expressed protein,30 min,0.96
same,Fold-change AT1G72180 leucine-rich repeat transmembrane protein kinase,30 min,0.87
same,"Fold-change AT1G72800 nuM1-related, contains",30 min,1.08
same,Fold-change AT1G75270 dehydroascorbate reductase,30 min,1.27
same,Fold-change AT1G75500 nodulin MtN21 family protein,30 min,0.91
same,"Fold-change AT1G76240 expressed protein,",30 min,0.57
same,Fold-change AT1G76410 zinc finger (C3HC4-type RING finger),30 min,1.61
same,Fold-change AT1G79110 expressed protein,30 min,1.09
same,Fold-change AT1G79630 protein phosphatase 2C family protein,30 min,0.78
same,Fold-change AT1G80440 kelch repeat-containing F-box family protein,30 min,1.71
same,Fold-change AT2G01300 expressed protein,30 min,1.16
same,"Fold-change AT2G01990 expressed protein,",30 min,0.91
same,Fold-change AT2G04240 zinc finger (C3HC4-type RING finger) family protein,30 min,1.46
same,Fold-change AT2G05540 glycine-rich protein,30 min,0.92
same,"Fold-change AT2G12290; AT4G19700 [AT2G12290, expressed protein]; [AT4G19700, expressed protein]",30 min,0.80
same,Fold-change AT2G18010 auxin-responsive family protein (SAUR10),30 min,1.60
same,Fold-change AT2G19800 expressed protein,30 min,1.20
same,Fold-change AT2G22860 phytosulfokines 2 (PSK2),30 min,0.86
same,"Fold-change AT2G23180 cytochrome P450, putative",30 min,1.10
same,Fold-change AT2G23320 WRKY family transcription factor,30 min,0.86
same,Fold-change AT2G26530 expressed protein,30 min,0.41
same,Fold-change AT2G26710 cytochrome p450 family (BAS1),30 min,1.56
same,Fold-change AT2G28510 Dof-type zinc finger domain-containing protein,30 min,0.94
same,Fold-change AT2G29340 short-chain dehydrogenase/reductase (SDR) family protein,30 min,0.85
same,Fold-change AT2G29990 pyridine nucleotide-disulphide oxidoreductase family protein,30 min,0.94
same,Fold-change AT2G30070 potassium transporter (KUP1),30 min,0.81
same,Fold-change AT2G31230 encodes a member of the ERF (ethylene response factor),30 min,1.66
same,Fold-change AT2G34650 protein kinase PINOID (PID),30 min,1.54
same,Fold-change AT2G36220 expressed protein,30 min,1.18
same,Fold-change AT2G37590 Dof-type zinc finger domain-containing protein,30 min,0.90
same,Fold-change AT2G38470 WRKY family transcription factor,30 min,0.38
same,Fold-change AT2G39710 aspartyl protease family protein,30 min,1.25
same,"Fold-change AT2G40340; AT2G40350 [AT2G40340, encodes a member of the DREB subfamily A-2 of ERF/AP2",30 min,1.16
same,Fold-change AT2G41250 haloacid dehalogenase-like hydrolase family protein,30 min,0.91
same,Fold-change AT2G41640 expressed protein,30 min,0.84
same,Fold-change AT2G42280 basic helix-loop-helix (bHLH) family protein,30 min,0.98
same,"Fold-change AT2G43060 expressed protein, similar to cDNA bHLH transcription factor",30 min,0.25
same,Fold-change AT2G43280 far-red impaired responsive family protein,30 min,0.84
same,Fold-change AT2G43290 calmodulin-like protein (MSS3),30 min,1.24
same,Fold-change AT2G44130 kelch repeat-containing F-box family protein,30 min,1.63
same,Fold-change AT2G44500 expressed protein,30 min,1.16
same,Fold-change AT2G45210 auxin-responsive protein-related,30 min,0.77
same,Fold-change AT2G45680 TCP family transcription factor,30 min,0.91
same,Fold-change AT2G46225 Encodes a subunit of the WAVE complex,30 min,0.97
same,Fold-change AT2G47440 DNAJ heat shock N-terminal domain-containing protein,30 min,1.31
same,"Fold-change AT3G04210 disease resistance protein (TIR-NBS class), putative,",30 min,0.89
same,Fold-change AT3G09920 phosphatidylinositol-4-phosphate 5-kinase family protein,30 min,0.94
same,Fold-change AT3G12920 expressed protein,30 min,0.81
same,Fold-change AT3G13040 myb family transcription factor,30 min,0.84
same,Fold-change AT3G13510 expressed protein,30 min,1.06
same,Fold-change AT3G13980 expressed protein,30 min,0.71
same,Fold-change AT3G14370 protein kinase family protein,30 min,2.13
same,Fold-change AT3G14560 expressed protein,30 min,0.81
same,Fold-change AT3G16570 rapid alkalinization factor (RALF) family protein,30 min,0.88
same,Fold-change AT3G17860 expressed protein,30 min,1.08
same,Fold-change AT3G18830 polyol/cyclitol/monosaccharide-H+-symporte,30 min,1.11
same,Fold-change AT3G19380 U-box domain-containing protein,30 min,0.70
same,Fold-change AT3G23030 auxin-responsive protein/indoleacetic acid-induced protein 2 (IAA2),30 min,0.66
same,Fold-change AT3G23550 MATE efflux family protein,30 min,0.84
same,Fold-change AT3G25710 basic helix-loop-helix (bHLH) family protein,30 min,1.06
same,Fold-change AT3G25900 homocysteine S-methyltransferase 1 (HMT-1),30 min,1.17
same,Fold-change AT3G26910 hydroxyproline-rich glycoprotein family protein,30 min,1.08
same,Fold-change AT3G30180 cytochrome p450 enzyme,30 min,0.31
same,"Fold-change AT3G46880 expressed protein,",30 min,0.84
same,Fold-change AT3G47800 aldose 1-epimerase family protein,30 min,1.06
same,Fold-change AT3G48970 copper-binding family protein,30 min,0.97
same,Fold-change AT3G49810 U-box domain-containing protein,30 min,0.89
same,Fold-change AT3G50650 scarecrow-like transcription factor 7 (SCL7),30 min,1.17
same,Fold-change AT3G50660 steroid 22-alpha-hydroxylase (CYP90B1) (DWF4),30 min,0.47
same,Fold-change AT3G50750 brassinosteroid signalling positive regulator-related (BEH1),30 min,0.99
same,Fold-change AT3G52490 heat shock protein-related,30 min,0.93
same,Fold-change AT3G53810 lectin protein kinase,30 min,0.80
same,"Fold-change AT3G54950 patatin-related,",30 min,0.86
same,Fold-change AT3G55120 chalcone-flavanone isomerase,30 min,0.98
same,Fold-change AT3G55150 exocyst subunit EXO70 family protein,30 min,0.75
same,Fold-change AT3G55840 expressed protein,30 min,1.06
same,Fold-change AT3G61460 zinc finger (C3HC4-type RING finger) family protein (BRH1),30 min,0.78
same,Fold-change AT3G63300 expressed protein,30 min,1.02
same,Fold-change AT4G01680 myb family transcription factor (MYB55),30 min,0.51
same,Fold-change AT4G02410 lectin protein kinase family protein,30 min,0.66
same,"Fold-change AT4G08040 1-aminocyclopropane-1-carboxylate synthase, putative",30 min,0.13
same,Fold-change AT4G09460 myb family transcription factor,30 min,1.30
same,Fold-change AT4G12390 invertase/pectin methylesterase inhibitor family protein,30 min,0.96
same,Fold-change AT4G12410 auxin-responsive family protein,30 min,1.02
same,Fold-change AT4G14130 xyloglucan:xyloglucosyl transferase,30 min,0.85
same,Fold-change AT4G15975 zinc finger (C3HC4-type RING finger) family protein,30 min,1.10
same,Fold-change AT4G16146 expressed protein,30 min,0.82

# Source: patent US8273775B2, “Non-steroidal brassinosteroid mimetic” (priority 2006, dated 2012)
